The CheMixHub drug solubility set

Assay: xn = mol fraction of the nth substance listed, in the solute-free solvent

Cl.N=C(N)N + CN(C)C=O + CCCO
solubility (g/100 g solution)
Settings | 278.15 K | 283.15 K | 288.15 K | 293.15 K | 298.15 K | 303.15 K | 308.15 K | 313.15 K | 318.15 K | 323.15 K
x2 = 0.08378 | 10.4 | 11.5 | 12.6 | 13.4 | 14.4 | 15.6 | 16.5 | 17.8 | 18.9 | 20.5
x2 = 0.2607 | 20.4 | 21.6 | 22.3 | 23 | 23.9 | 24.8 | 25.6 | 26.3 | 27.2 | 28.1
x2 = 0.4515 | 27.6 | 28.9 | 29.7 | 30.7 | 31.8 | 32.8 | 33.4 | 34.5 | 35.3 | 36.7
x2 = 0.657 | 35.6 | 37.3 | 38.3 | 39.1 | 40.5 | 41.6 | 42.5 | 43.5 | 44.9 | 46.1
x2 = 0.8809 | 43.5 | 45.6 | 46.6 | 47.1 | 48.8 | 49.9 | 50.7 | 52.4 | 53.7 | 54

Nc1ccc(Oc2ccc(N)cc2)cc1 + CN(C)C=O + CCO
solubility (g/100 g solution)
Settings | 293.15 K | 298.15 K | 303.15 K | 308.15 K | 313.15 K | 318.15 K | 323.15 K | 328.15 K | 333.15 K
x2 = 0.06545 | 0.79 | 0.873 | 1.16 | 1.2 | 1.53 | 1.69 | 2.06 | 2.54 | 2.99
x2 = 0.1361 | 1.59 | 1.71 | 2.14 | 2.18 | 2.57 | 2.99 | 3.53 | 4.13 | 4.74
x2 = 0.2127 | 2.76 | 2.98 | 3.46 | 3.65 | 4.23 | 4.88 | 5.56 | 6.41 | 7.1
x2 = 0.2959 | 4.51 | 4.86 | 5.41 | 5.88 | 6.29 | 7.33 | 8.28 | 9.19 | 10.3
x2 = 0.3866 | 6.9 | 7.38 | 7.95 | 8.83 | 9.66 | 10.6 | 11.6 | 12.8 | 14.1
x2 = 0.486 | 9.91 | 10.6 | 11.3 | 12.2 | 13.3 | 14.3 | 15.5 | 16.9 | 18.1
x2 = 0.5952 | 13.6 | 14.3 | 15.1 | 16.1 | 17.2 | 18.5 | 19.6 | 21 | 22.4
x2 = 0.716 | 17.6 | 18.4 | 19.2 | 20.3 | 21.5 | 22.6 | 23.9 | 25.2 | 26.7
x2 = 0.8501 | 21.8 | 22.5 | 23.2 | 24 | 25.6 | 26.7 | 27.9 | 29.2 | 30.6

Nc1ccc(Oc2ccc(N)cc2)cc1 + CS(C)=O + CCO
solubility (g/100 g solution)
Settings | 293.15 K | 298.15 K | 303.15 K | 308.15 K | 313.15 K | 318.15 K | 323.15 K | 328.15 K | 333.15 K
x2 = 0.06154 | 0.705 | 0.952 | 1.2 | 1.28 | 1.56 | 1.81 | 2.13 | 2.45 | 2.97
x2 = 0.1286 | 1.54 | 1.73 | 2.16 | 2.39 | 2.54 | 3.27 | 3.57 | 4.14 | 4.81
x2 = 0.2019 | 2.84 | 3.16 | 3.74 | 4.14 | 4.64 | 5.35 | 5.87 | 6.46 | 7.63
x2 = 0.2824 | 5.08 | 5.51 | 6.34 | 6.77 | 7.36 | 8.3 | 9.1 | 10.2 | 11.8
x2 = 0.3711 | 8.32 | 8.84 | 9.8 | 10.4 | 11.4 | 12.3 | 13.3 | 14.7 | 16.3
x2 = 0.4696 | 12.3 | 13.1 | 14.1 | 15 | 16 | 17.2 | 18.2 | 19.7 | 21.4
x2 = 0.5793 | 17 | 18.3 | 19.1 | 20.1 | 21 | 22.4 | 23.4 | 24.9 | 26.6
x2 = 0.7024 | 22 | 23.1 | 24 | 24.9 | 25.9 | 26.9 | 28.1 | 29.7 | 31.3
x2 = 0.8416 | 26.8 | 27.7 | 28.6 | 29.6 | 30.2 | 31.6 | 32.7 | 34.1 | 35.7

CC(N)C(=O)O (configuration not stated) + O + CCCO
solubility (g/100 g solution)
Settings | x2 = 0.1 | x2 = 0.2 | x2 = 0.3 | x2 = 0.4 | x2 = 0.5 | x2 = 0.6 | x2 = 0.7 | x2 = 0.8 | x2 = 0.9
283.15 K | 0.0276 | 0.0472 | 0.0784 | 0.143 | 0.358 | 0.635 | 1.29 | 2.39 | 4.58
293.15 K | 0.0384 | 0.0536 | 0.0822 | 0.164 | 0.384 | 0.742 | 1.56 | 3.01 | 5.63
303.15 K | 0.0461 | 0.0689 | 0.0947 | 0.202 | 0.439 | 0.892 | 1.89 | 3.69 | 6.82
313.15 K | 0.0649 | 0.0791 | 0.109 | 0.224 | 0.504 | 1.12 | 2.27 | 4.41 | 8.24
323.15 K | 0.0824 | 0.114 | 0.147 | 0.268 | 0.594 | 1.29 | 2.65 | 5.2 | 9.44
